According to patent US9932309B2, “2-oxo-3,4-dihydropyridine-5-carboxylates and their use” (UNIVERSITE DE LILLE 2 DROIT ET SANTE, priority 2014, dated 2018):

Columns and labels:
hTGR5 = biological target: T1, hTGR5 (Homo sapiens, UniProt Q8TDU6); assay: TGR5/CRE Luciferase Assay (hTGR5); format: cell-based; conditions: for EC50: HEK 293 cells co-transfected with pCMV tag4b-TGR5h and pCRE TA-Luciferase, overnight incubation; for hTGR5 % trans: percentage of the 10 μM LCA value, HEK 293 cells transfected with hTGR5
T1 construct: expressed in transfected cells; host or cells: HEK293 cells, transiently co-transfected with the pCRE TA-Luciferase reporter
T1 sequence (Q8TDU6 1-330): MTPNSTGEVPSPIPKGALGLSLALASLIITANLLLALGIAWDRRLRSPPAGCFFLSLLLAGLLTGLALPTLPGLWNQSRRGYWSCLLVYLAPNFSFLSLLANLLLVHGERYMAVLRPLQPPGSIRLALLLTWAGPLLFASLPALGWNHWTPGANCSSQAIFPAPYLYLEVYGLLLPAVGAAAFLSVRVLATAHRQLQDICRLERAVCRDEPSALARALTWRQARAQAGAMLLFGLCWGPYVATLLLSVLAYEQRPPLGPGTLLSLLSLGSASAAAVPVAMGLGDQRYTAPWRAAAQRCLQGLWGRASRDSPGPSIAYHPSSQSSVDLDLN
Description: (§1) TGR5/CRE Luciferase Assay
(§2) In the following Tables TGR5 activation by compounds of the invention and subsequent increase in intracellular cAMP were evaluated using a luciferase reporter gene assay. Human embryonic kidney (HEK) 293 cells were transiently co-transfected with pCMV tag4b-TGR5 h (to follow hTGR5 activation) or pCMV AC6-TGR5m (to follow mTGR5 activation) expression plasmids and the pCRE TA-Luciferase reporter plasmid using the JET PEI reagent (Polyplus transfection). Transfected cells were seeded in 96-well plates and incubated overnight with the test compounds at increasing concentrations tested in duplicate. Lithocolic acid (LCA) at 10 μM was used as a positive reference compound. The cAMP-dependent luciferase expression was followed using the BrightGlo reagent according to the manufacturer (Promega) instructions. Luminescence was read with a Mithras plate reader (Berthold) or a Victor3™ V1420 (Perkin Elmer). […] Concentration-response curves were fitted by a nonlinear regression analysis to a 4 parameter logistic equation

mTGR5 = biological target: T2, mTGR5 (Mus musculus, UniProt Q80SS6); assay: TGR5/CRE Luciferase Assay (mTGR5); format: cell-based; conditions: for EC50: HEK 293 cells co-transfected with pCMV AC6-TGR5m and pCRE TA-Luciferase, overnight incubation; for mTGR5 % trans: percentage of the 10 μM LCA value, HEK 293 cells transfected with mTGR5
T2 construct: expressed in transfected cells; host or cells: HEK293 cells, transiently co-transfected with the pCRE TA-Luciferase reporter
T2 sequence (Q80SS6 1-329): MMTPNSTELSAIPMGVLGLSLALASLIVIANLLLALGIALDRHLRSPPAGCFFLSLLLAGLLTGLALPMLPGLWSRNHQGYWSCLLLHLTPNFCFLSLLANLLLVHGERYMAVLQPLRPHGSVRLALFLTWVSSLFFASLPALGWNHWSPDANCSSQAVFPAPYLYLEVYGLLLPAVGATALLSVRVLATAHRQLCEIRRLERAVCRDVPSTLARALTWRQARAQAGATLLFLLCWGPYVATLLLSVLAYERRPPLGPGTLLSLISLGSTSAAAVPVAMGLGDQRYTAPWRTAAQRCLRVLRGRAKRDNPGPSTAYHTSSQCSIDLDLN
Description: as §1, §2

SMILES	EC50 (hTGR5)	hTGR5 % trans (hTGR5)	EC50 (mTGR5)	mTGR5 % trans (mTGR5)
COc1ccccc1COC(=O)C1=C(C)N(C[C@H]2CCCO2)C(=O)C[C@H]1c1ccc(C(F)(F)F)nc1 (racemic) [Example 150, (2-Methoxyphenyl)methyl (4S)-6-methyl-2-oxo-1-[[(2R)-tetrahydrofuran-2-yl]methyl]-4-[6-(trifluoromethyl)-3-pyridyl]-3,4-dihydropyridine-5-carboxylate and (2-methoxyphenyl)methyl (4R)-6-methyl-2-oxo-1-[[(2S)-tetrahydrofuran-2-yl]methyl]-4-[6-(trifluoromethyl)-3-pyridyl]-3,4-dihydropyridine-5-carboxylate]	25 nM	110%	100 nM	99%
COc1ccccc1COC(=O)C1=C(C)N(C[C@H]2CCCO2)C(=O)C[C@H]1c1ccc2nsnc2c1 (racemic) [Example 152, (2-Methoxyphenyl)methyl (4S)-4-(2,1,3-benzothiadiazol-5-yl)-6-methyl-2-oxo-1-[[(2R)-tetrahydrofuran-2-yl]methyl]-3,4-dihydropyridine-5-carboxylate and (2-methoxyphenyl)methyl (4R)-4-(2,1,3-benzothiadiazol-5-yl)-6-methyl-2-oxo-1-[[(2S)-tetrahydrofuran-2-yl]methyl]-3,4-dihydropyridine-5-carboxylate]	30 nM	106%	48 nM	66%
CC1=C(C(=O)OCc2ccc(OCCS(=O)(=O)O)cc2)[C@@H](c2ccc(Cl)nc2)CC(=O)N1C[C@@H]1CCCO1.N (racemic) [Example 153, Ammonium,2-[4-[[(4S)-4-(6-chloro-3-pyridyl)-6-methyl-2-oxo-1-[[(2R)-tetrahydrofuran-2-yl]methyl]-3,4-dihydropyridine-5-carbonyl]oxymethyl]phenoxy]ethanesulfonate and ammonium,2-[4-[[(4R)-4-(6-chloro-3-pyridyl)-6-methyl-2-oxo-1-[[(2S)-tetrahydrofuran-2-yl]methyl]-3,4-dihydropyridine-5-carbonyl]oxymethyl]phenoxy]ethanesulfonate]	130 nM	101%	130 nM	102%
COCCN1C(=O)CC(c2ccc(Cl)cc2)C(C(=O)OCc2ccccc2OC(F)(F)F)=C1C (stereo not drawn) [Example 105, (2-trifluoromethoxyphenyl)methyl 4-(4-chlorophenyl)-1-(2-methoxyethyl)-6-methyl-2-oxo-3,4-dihydropyridine-5-carboxylate]	–	–	800 nM	63%

Further lines, results first:

EC50 (hTGR5)	hTGR5 % trans (hTGR5)	EC50 (mTGR5)	mTGR5 % trans (mTGR5)	SMILES
20 nM	93%	40 nM	111%	COCCOc1ccc(COC(=O)C2=C(C)N(C[C@H]3CCCO3)C(=O)C[C@H]2c2ccc(Cl)cc2)cc1 (racemic) [Example 136, 4-(2-methoxyethoxy)phenyl]methyl (4S)-4-(4-chlorophenyl)-6-methyl-2-oxo-1-[[(2R)-tetrahydrofuran-2-yl]methyl]-3,4-dihydropyridine-5-carboxylate and 4-(2-methoxyethoxy)phenyl]methyl (4R)-4-(4-chlorophenyl)-6-methyl-2-oxo-1-[[(2S)-tetrahydrofuran-2-yl]methyl]-3,4-dihydropyridine-5-carboxylate]
380 nM	70%	930 nM	40%	CC1=C(C(=O)OC2CCc3ccccc32)[C@H](c2ccc(Cl)cc2)CC(=O)N1C[C@H]1CCCO1 (mixture of isomers) [Example 137, Indan-1-yl (4S)-4-(4-chlorophenyl)-6-methyl-2-oxo-1-[[(2R)-tetrahydrofuran-2-yl]methyl]-3,4-dihydropyridine-5-carboxylate]
1000 nM	72%	2500 nM	74%	CC1=C(C(=O)OCc2ccccn2)[C@H](c2ccc(Cl)cc2)CC(=O)N1C[C@H]1CCCO1 (racemic) [Example 145, 2-pyridylmethyl (4S)-4-(4-chlorophenyl)-6-methyl-2-oxo-1-[[(2R)-tetrahydrofuran-2-yl]methyl]-3,4-dihydropyridine-5-carboxylate and 2-pyridylmethyl (4R)-4-(4-chlorophenyl)-6-methyl-2-oxo-1-[[(2S)-tetrahydrofuran-2-yl]methyl]-3,4-dihydropyridine-5-carboxylate]
350 nM	78%	450 nM	77%	CC1=C(C(=O)OCc2cccnc2)[C@H](c2ccc(Cl)cc2)CC(=O)N1C[C@H]1CCCO1 (racemic) [Example 146, 3-pyridylmethyl (4S)-4-(4-chlorophenyl)-6-methyl-2-oxo-1-[[(2R)-tetrahydrofuran-2-yl]methyl]-3,4-dihydropyridine-5-carboxylate and 3-pyridylmethyl (4R)-4-(4-chlorophenyl)-6-methyl-2-oxo-1-[[(2S)-tetrahydrofuran-2-yl]methyl]-3,4-dihydropyridine-5-carboxy late]
190 nM	77%	450 nM	112%	COCCOc1ccc(COC(=O)C2=C(C)N(C[C@@H]3CCCO3)C(=O)C[C@H]2c2ccc(Cl)cc2)cc1 (racemic) [Example 147, [4-(2-methoxyethoxy)phenyl]methyl (4S)-4-(4-chlorophenyl)-6-methyl-2-oxo-1-[[(2S)-tetrahydrofuran-2-yl]methyl]-3,4-dihydropyridine-5-carboxylate and [4-(2-methoxyethoxy)phenyl]methyl (4R)-4-(4-chlorophenyl)-6-methyl-2-oxo-1-[[(2R)-tetrahydrofuran-2-yl]methyl]-3,4-dihydropyridine-5-carboxylate]
20 nM	91%	70 nM	89%	COc1ccccc1COC(=O)C1=C(C)N(C[C@H]2CCCO2)C(=O)C[C@H]1c1ccc(Cl)c(Cl)c1 (racemic) [Example 149, (2-methoxyphenyl)methyl (4S)-4-(3,4-dichlorophenyl)-6-methyl-2-oxo-1-[[(2R)-tetrahydrofuran-2-yl]methyl]-3,4-dihydropyridine-5-carboxylate and (2-methoxyphenyl)methyl (4R)-4-(3,4-dichlorophenyl)-6-methyl-2-oxo-1-[[(2S)-tetrahydrofuran-2-yl]methyl]-3,4-dihydropyridine-5-carboxylate]
2200 nM	87%	12500 nM	44%	COc1ccccc1COC(=O)C1=C(C)N(C[C@H]2CCCO2)C(=O)C[C@H]1c1cccnc1Cl (racemic) [Example 151, (2-Methoxyphenyl)methyl (4R)-4-(2-chloro-3-pyridyl)-6-methyl-2-oxo-1-[[(2R)-tetrahydrofuran-2-yl]methyl]-3,4-dihydropyridine-5-carboxylate and (2-methoxyphenyl)methyl (4S)-4-(2-chloro-3-pyridyl)-6-methyl-2-oxo-1-[[(2S)-tetrahydrofuran-2-yl]methyl]-3,4-dihydropyridine-5-carboxylate]
